Results published in PubChem BioAssay AID1259407 (Chemical Carcinogenesis Research Information System (CCRIS), 2018).
Active and inactive are the calls of the source. The rule behind the calls is not given here.

Tested on: CCRIS mutagenicity, Ames/micronucleus/aberration tests
Test: CCRIS mutagenicity studies
[1] = Test System: AMES SALMONELLA TYPHIMURIUM, Strain/Indicator: TA98, Metabolic Activation: NONE, Method: PREINCUBATION
[2] = Test System: AMES SALMONELLA TYPHIMURIUM, Strain/Indicator: TA98, Metabolic Activation: NONE, Method: STANDARD PLATE
[3] = Test System: AMES SALMONELLA TYPHIMURIUM, Strain/Indicator: TA100, Metabolic Activation: NONE, Method: STANDARD PLATE
[4] = Test System: AMES SALMONELLA TYPHIMURIUM, Strain/Indicator: TA1535, Metabolic Activation: NONE, Method: STANDARD PLATE
[5] = Test System: AMES SALMONELLA TYPHIMURIUM, Strain/Indicator: TA1537, Metabolic Activation: NONE, Method: STANDARD PLATE

CC1=CC(=O)c2ccccc2C1=O
mutagenic call (Test System: AMES SALMONELLA TYPHIMURIUM, Strain/Indicator: TA97, Metabolic Activation: NONE, Method: PREINCUBATION): active; positive | mutagenic call (Test System: AMES SALMONELLA TYPHIMURIUM, Strain/Indicator: TA97, Metabolic Activation: RAT, LIVER, S-9, PHENOBARBITAL AND 5,6-BENZOFLAVONE, Method: PREINCUBATION): inactive; negative | mutagenic call (Test System: AMES SALMONELLA TYPHIMURIUM, Strain/Indicator: TA97A, Metabolic Activation: NONE, Method: PREINCUBATION): inactive; negative | mutagenic call [1]: inactive; negative | mutagenic call (Test System: AMES SALMONELLA TYPHIMURIUM, Strain/Indicator: TA98, Metabolic Activation: NONE, Method: SPIRAL ASSAY): inactive; negative | mutagenic call [2]: inactive; negative | mutagenic call (Test System: AMES SALMONELLA TYPHIMURIUM, Strain/Indicator: TA98, Metabolic Activation: RAT, LIVER, S-9, AROCLOR 1254, Method: SPIRAL ASSAY): inactive; negative | mutagenic call (Test System: AMES SALMONELLA TYPHIMURIUM, Strain/Indicator: TA98, Metabolic Activation: RAT, LIVER, S-9, AROCLOR 1254, Method: STANDARD PLATE): inactive; negative | mutagenic call (Test System: AMES SALMONELLA TYPHIMURIUM, Strain/Indicator: TA98, Metabolic Activation: RAT, LIVER, S-9, PHENOBARBITAL AND 5,6-BENZOFLAVONE, Method: PREINCUBATION): active; positive | mutagenic call (Test System: AMES SALMONELLA TYPHIMURIUM, Strain/Indicator: TA100, Metabolic Activation: NONE, Method: SPIRAL ASSAY): inactive; negative | mutagenic call [3]: inactive; negative | mutagenic call (Test System: AMES SALMONELLA TYPHIMURIUM, Strain/Indicator: TA100, Metabolic Activation: RAT, LIVER, S-9, AROCLOR 1254, Method: SPIRAL ASSAY): inactive; negative | mutagenic call (Test System: AMES SALMONELLA TYPHIMURIUM, Strain/Indicator: TA100, Metabolic Activation: RAT, LIVER, S-9, AROCLOR 1254, Method: STANDARD PLATE): inactive; negative | mutagenic call (Test System: AMES SALMONELLA TYPHIMURIUM, Strain/Indicator: TA100, Metabolic Activation: RAT, LIVER, S-9, PHENOBARBITAL AND 5,6-BENZOFLAVONE, Method: PREINCUBATION): inactive; negative | mutagenic call (Test System: AMES SALMONELLA TYPHIMURIUM, Strain/Indicator: TA102, Metabolic Activation: NONE, Method: PREINCUBATION): inactive; negative | mutagenic call (Test System: AMES SALMONELLA TYPHIMURIUM, Strain/Indicator: TA102, Metabolic Activation: NONE, Method: STANDARD PLATE): inactive; negative | mutagenic call (Test System: AMES SALMONELLA TYPHIMURIUM, Strain/Indicator: TA102, Metabolic Activation: RAT, LIVER, S-9, PHENOBARBITAL AND 5,6-BENZOFLAVONE, Method: PREINCUBATION): inactive; negative | mutagenic call (Test System: AMES SALMONELLA TYPHIMURIUM, Strain/Indicator: TA104, Metabolic Activation: RAT, LIVER, S-9, PHENOBARBITAL AND 5,6-BENZOFLAVONE, Method: PREINCUBATION): inactive; negative | mutagenic call (Test System: AMES SALMONELLA TYPHIMURIUM, Strain/Indicator: TA1535, Metabolic Activation: NONE, Method: PREINCUBATION): inactive; negative | mutagenic call (Test System: AMES SALMONELLA TYPHIMURIUM, Strain/Indicator: TA1535, Metabolic Activation: NONE, Method: SPIRAL ASSAY): inactive; negative | mutagenic call [4]: inactive; negative | mutagenic call (Test System: AMES SALMONELLA TYPHIMURIUM, Strain/Indicator: TA1535, Metabolic Activation: RAT, LIVER, S-9, AROCLOR 1254, Method: SPIRAL ASSAY): inactive; negative | mutagenic call (Test System: AMES SALMONELLA TYPHIMURIUM, Strain/Indicator: TA1535, Metabolic Activation: RAT, LIVER, S-9, AROCLOR 1254, Method: STANDARD PLATE): inactive; negative | mutagenic call (Test System: AMES SALMONELLA TYPHIMURIUM, Strain/Indicator: TA1535, Metabolic Activation: RAT, LIVER, S-9, PHENOBARBITAL AND 5,6-BENZOFLAVONE, Method: PREINCUBATION): inactive; negative | mutagenic call (Test System: AMES SALMONELLA TYPHIMURIUM, Strain/Indicator: TA1537, Metabolic Activation: NONE, Method: PREINCUBATION): inactive; negative | mutagenic call (Test System: AMES SALMONELLA TYPHIMURIUM, Strain/Indicator: TA1537, Metabolic Activation: NONE, Method: SPIRAL ASSAY): inactive; negative | mutagenic call [5]: inactive; negative | mutagenic call (Test System: AMES SALMONELLA TYPHIMURIUM, Strain/Indicator: TA1537, Metabolic Activation: RAT, LIVER, S-9, AROCLOR 1254, Method: SPIRAL ASSAY): inactive; negative | mutagenic call (Test System: AMES SALMONELLA TYPHIMURIUM, Strain/Indicator: TA1537, Metabolic Activation: RAT, LIVER, S-9, AROCLOR 1254, Method: STANDARD PLATE): inactive; negative | mutagenic call (Test System: AMES SALMONELLA TYPHIMURIUM, Strain/Indicator: TA1537, Metabolic Activation: RAT, LIVER, S-9, PHENOBARBITAL AND 5,6-BENZOFLAVONE, Method: PREINCUBATION): inactive; negative | mutagenic call (Test System: AMES SALMONELLA TYPHIMURIUM, Strain/Indicator: TA1538, Metabolic Activation: NONE, Method: PREINCUBATION): inactive; negative | mutagenic call (Test System: AMES SALMONELLA TYPHIMURIUM, Strain/Indicator: TA1538, Metabolic Activation: RAT, LIVER, S-9, PHENOBARBITAL AND 5,6-BENZOFLAVONE, Method: PREINCUBATION): inactive; negative | mutagenic call (Test System: AMES SALMONELLA TYPHIMURIUM, Strain/Indicator: TA2637, Metabolic Activation: NONE, Method: PREINCUBATION): active; positive | mutagenic call (Test System: AMES SALMONELLA TYPHIMURIUM, Strain/Indicator: TA2637, Metabolic Activation: RAT, LIVER, S-9, PHENOBARBITAL AND 5,6-BENZOFLAVONE, Method: PREINCUBATION): active; positive | mutagenic call (Test System: AMES SALMONELLA TYPHIMURIUM, Strain/Indicator: TA2638, Metabolic Activation: NONE, Method: STANDARD PLATE): inactive; negative | mutagenic call (Test System: E. COLI, Strain/Indicator: IC202, Metabolic Activation: NONE, Method: STANDARD PLATE): active; positive | mutagenic call (Test System: E. COLI, Strain/Indicator: IC203, Metabolic Activation: NONE, Method: STANDARD PLATE): active; positive | mutagenic call (Test System: E. COLI, Strain/Indicator: IC5059, Metabolic Activation: NONE, Method: STANDARD PLATE): inactive; negative | mutagenic call (Test System: E. COLI, Strain/Indicator: IC5064, Metabolic Activation: NONE, Method: STANDARD PLATE): inactive; negative | mutagenic call (Test System: E. COLI, Strain/Indicator: IC5184, Metabolic Activation: NONE, Method: STANDARD PLATE): inactive; negative | mutagenic call (Test System: E. COLI, Strain/Indicator: IC5185, Metabolic Activation: NONE, Method: STANDARD PLATE): inactive; negative | mutagenic call (Test System: E. COLI, Strain/Indicator: WP2 (PKM101), Metabolic Activation: NONE, Method: STANDARD PLATE): inactive; negative | mutagenic call (Test System: E. COLI, Strain/Indicator: WP2 UVRA (PKM101), Metabolic Activation: NONE, Method: STANDARD PLATE): inactive; negative

O=C(CBr)c1ccc(Br)cc1
mutagenic call [1]: inactive; negative | mutagenic call (Test System: AMES SALMONELLA TYPHIMURIUM, Strain/Indicator: TA98, Metabolic Activation: RAT, LIVER, S-9, PCB, Method: PREINCUBATION): inactive; negative | mutagenic call (Test System: AMES SALMONELLA TYPHIMURIUM, Strain/Indicator: TA100, Metabolic Activation: NONE, Method: PREINCUBATION): inactive; negative | mutagenic call (Test System: AMES SALMONELLA TYPHIMURIUM, Strain/Indicator: TA100, Metabolic Activation: RAT, LIVER, S-9, PCB, Method: PREINCUBATION): inactive; negative | mutagenic call (Test System: E. COLI, Strain/Indicator: WP2 UVRA, Metabolic Activation: NONE, Method: PREINCUBATION): inactive; negative

CCCNc1snc2ccccc12
mutagenic call [2]: inactive; negative | mutagenic call (Test System: AMES SALMONELLA TYPHIMURIUM, Strain/Indicator: TA98, Metabolic Activation: S-9, Method: STANDARD PLATE): inactive; negative | mutagenic call [3]: inactive; negative | mutagenic call (Test System: AMES SALMONELLA TYPHIMURIUM, Strain/Indicator: TA100, Metabolic Activation: S-9, Method: STANDARD PLATE): inactive; negative | mutagenic call [4]: inactive; negative | mutagenic call (Test System: AMES SALMONELLA TYPHIMURIUM, Strain/Indicator: TA1535, Metabolic Activation: S-9, Method: STANDARD PLATE): inactive; negative | mutagenic call [5]: inactive; negative | mutagenic call (Test System: AMES SALMONELLA TYPHIMURIUM, Strain/Indicator: TA1537, Metabolic Activation: S-9, Method: STANDARD PLATE): inactive; negative
